Results reported in a melting point compilation (Tetko et al.; mined from patent text by program, amines drawn as free bases though some values may be those of a salt).

| Compound | melting point [°C] |
| --- | --- |
| COC(=O)c1cc(Oc2cccnc2)c(C(F)(F)F)cc1[N+](=O)[O-] | 98 to 100 |
| Clc1ccc2c(N3CCNCC3)n[nH]c2c1 | 135 to 137 |
| CCOCc1nc(N)c2nc(C)cnc2n1 | 166 to 168 |
| COc1ccc(-c2cnn(-c3cccc(C)n3)c(=O)c2)cc1 | 167 to 168 |
| O=C(C[C@H](NC(=O)c1ccccc1)C(=O)O)c1ccc2oc3ccccc3c2c1 | 124 to 130 |
| C=CCOc1ccc(Nc2nccc(-c3cccnc3)n2)cc1 | 105 to 108 |
| CC(C)(C)OC(=O)N1CCC(C#N)(c2cccc(C(F)(F)F)c2)CC1 | 72 to 73 |
| O=C(NCc1cc(Cl)cc(Cl)c1)c1ccnc(NC(=O)c2ccccc2)c1 | 248 to 251 |
| CCc1nnc(-c2ccc(O)cc2)n1-c1ccc(O)cc1 | 317 to 318 |
| CC1(C)C(=O)N(c2ccc(C#N)c(C(F)(F)F)c2)C(=O)N1C(=O)c1ccccc1 | 179 to 180 |
| CC(=O)ON=C(N)c1ccc(C(=O)NCCCNC(=O)[C@@H]2CCCN2S(=O)(=O)c2ccc(Cl)c(COc3cccn4cc(C)nc34)c2Cl)cc1 | 105 to 107 |
| Cc1ccc(NC(=O)C(C)(C)C)c(-c2cncc(Cl)n2)c1 | 80 to 83 |
| COC1CCC2C3C(C)CC4=CC(=O)C(C)CC4(C)C3CCC12C (centres undefined) | 123 to 126 |
| COC(=O)c1[nH]ccc1O | 100 to 102 |
| COc1ccccc1-c1c(C2CCN(C)CC2)[nH]c(=O)c2ccccc12 | 153 to 155 |
| CC1(C)C(=O)Nc2ccc(-c3coc(C#N)c3)cc21 | 200 to 201 |
| CCOC(=O)CCc1cc(-c2cc3ccccc3c(=O)o2)ccc1OC | 105 to 106 |
| COc1cc(C(CCN(C)C)C(N)=O)cc(OC)c1OC (centres undefined) | 110 to 112 |
| CC(C)(C)c1cc(-c2nn(-c3ccccc3)c3ncccc23)cc(C(C)(C)C)c1O | 174 to 175 |
| CC(C)c1cc(S(=O)(=O)c2c(Br)cc(CC(=O)O)cc2Br)ccc1O | 171 to 172 |
| CC(C)(C)Nc1c(Nc2cnc3ccccc3c2)c(=O)c1=O | 257 to 260 |
| NCC1CCc2c(O)cccc2C1 (centres undefined) | 183 to 192 |

The remaining lines, values ahead:

| melting point [°C] | Compound |
| --- | --- |
| 141 | CCOC(=O)c1ccc(-c2ccc(OCCNC3CC3)c(-c3ccc4c(c3)C(C)(C)CCC4(C)C)c2)cc1 |
| 129 | CCCCCCCCNC(=O)Nc1ccccc1C(=O)NC1CCN(Cc2ccccc2)CC1 |
| 217 to 219 | O=C1N=CN(c2ccc(Cl)cc2)C12CCN(Cc1ccccc1)CC2 |
| 84 | CCCO[C@@H]1C[C@@H](C(=O)NC)N(S(=O)(=O)c2ccc(Cl)c(COc3cccc4c(-n5ccnc5)cc(C)nc34)c2Cl)C1 |
| 132 to 133 | O=[N+]([O-])c1ccc(F)c2ncccc12 |
| 243 to 245 | C/C=C/c1cccc2c(=O)c(C)c(C(N)=O)oc12 |
| 94 to 96 | COC(=O)CCc1ncccc1O |
| 80 to 83 | Cc1cc(Oc2ccc([N+](=O)[O-])c(F)c2)n[nH]1 |
| 56 to 58 | CCCCCCC/C=C/C(=O)NCCN1CCCC1 |
| 90.5 to 92 | C=CCN(C(=O)n1oc(C)c(Cl)c1=O)c1ccc(Cl)cc1Cl |
| 120 to 122 | C#CCNC(=O)N1CC(Oc2ccc(Cl)cc2)C1 |
| 205 to 208 | Cc1ccc(-c2ccc3c(c2)C=C(C(=O)NC2CCN(C(=O)OC(C)(C)C)CC2)CCO3)cc1 |
| 237 | Cc1cc(Br)c(S(N)(=O)=O)cc1C(=O)O |
| 158 | CCOC(=O)[C@H](Cn1cc(C)c(SC#N)nc1=O)NS(=O)(=O)N(C)C |
| 211 to 212 | COc1ccc2nc(C3(c4ccc(S(N)(=O)=O)cc4)C=C(C(F)F)NN3)sc2c1 (centres undefined) |
| 127 to 128 | O=C(Nc1ccc(-n2nc(C(F)(F)F)cc2C(F)(F)F)cc1)c1c(F)cccc1F |
| 213 to 215 | Nc1ncc(I)cc1[N+](=O)[O-] |
| 79 to 84 | C#CC(O)(CO)C(O)c1ncnc2c1ncn2Cc1ccc2c(c1)Nc1nccnc1S2 (centres undefined) |
| 223 to 224 | CC(C)(C)c1cc(C(=O)Oc2ccc(C(=O)O)cc2)cc(C(C)(C)C)c1O |
| 168 to 170 | CCCc1nc(C)c(C(=O)O)n1Cc1ccc2oc(-c3ccccc3NS(=O)(=O)C(F)(F)F)c(Br)c2c1 |
| 86 | CCC1CCCCN1C(=O)c1cc2ccccc2c(-c2ccccc2)n1 (centres undefined) |
| 115 | CCNC(=NC#N)NCCN(CC1CCc2ccccc2O1)C(=O)OC(C)(C)C (centres undefined) |
| 187 to 190 | Cn1c(-c2ccc(Cl)cc2)cc(=O)c(C(=O)O)c1-c1ccc(Cl)cc1 |
| 226 to 228 | CCOC(=O)NN=Cc1nc(C(C)(C)C)[nH]c1C |
| 173 to 174 | CCOC(=O)CCCCn1c(=O)[nH]c2ccc([N+](=O)[O-])cc2c1=O |
| 334 to 337 | O=c1c2c[nH]c3ccncc3c-2nn1-c1ccccc1 |
| 176 to 178 | CC(C)(C)NCC(O)COc1ccc(-c2nc(-c3ccccc3)c[nH]2)cc1 (centres undefined) |
